Data published in patent US20140031388A1, “AKT INACTIVATION BY TOCOPHERYL DERIVATIVES” (priority 2012, published 2014).

What was measured:
LNCaP-abl cells = test: MTT viability assay, LNCaP-abl; assay type: cell-based; conditions: Homo sapiens; LNCaP-abl cells (comparable to parental LNCaP); read-out: IC50, antiproliferative effect
Experimental: The prostate cancer cell lines, LNCaP and PC-3, were purchased from American Type Culture Collection (Manassas, Va.) and maintained in RPMI 1640 medium containing 10% heat-inactivated fetal bovine serum at 37° C. in a humidified incubator containing 5% CO2. The LNCaP-abl cells were a generous gift from Dr. Qianben Wang (The Ohio State University). Normal prostate epithelial cells were purchased from Lonza (Walkersville, Md.) and were cultured in the vendor-recommended defined prostate epithelial cell growth medium. For experiments, LNCaP cells were plated on poly-D-lysine-coated culture flasks at a density of 12,000 cells per cm^2 surface area for 24 hours, followed by treatment with test agents in serum-free RPMI 1640 medium. The α- and γ-tocopherols were purchased from Sigma-Aldrich (St. Louis, Mo.). The tocopherol derivatives, α- and γ-VE5, were synthesized by the inventors.
LNCaP cells were plated into poly-D-lysine-coated 96-well plates and PC-3 and LNCaP-abl cells into uncoated plates at the density of 5,000 cells per well in the presence of 10% FBS. […] The medium was then removed from each well and replaced with DMSO to dissolve the reduced MTT dye for subsequent colorimetric measurement of absorbance at 595 nm. Cell viabilities are calculated as percentages of that in the corresponding vehicle-treated control group.

[1] = target: T1, PH domain of ILK (GST-PH domain fusion protein) (Homo sapiens, UniProt Q13418); test: Surface plasmon resonance binding, ILK PH domain; conditions: SPR; means (n = 3) ± SD; read-out: Kd, ILK PH domain
T1 construct: made in house
T1 sequence (Q13418 180-212 limits assumed): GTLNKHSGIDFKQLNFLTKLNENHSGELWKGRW
Text: (§1) The cDNA fragments corresponding to the putative PH domain sequences of PHLPP1 (+115 to +372), PDK1 (+1225 to +1671), Akt1 (+1 to +447) and ILK (+538 to +646) were PCR-amplified using the plasmids pcDNA-HA-PHLPP1, pWZL-Neo-Myr-FLAG-PDPK1, pcDNA-HA-PKB-T308D-S473D, and pCMV-SPORT-ILK (Addgene) as templates. The PCR products were then cloned into EcoRI/XhoI sites of the pGEX-4T1 expression vector (GE Healthcare Life Sciences) to generate four constructs (pGEX-4T1-PHLPP1, pGEX-4T1-PDPK1, pGEX-4T1-AKT1, pGEX-4T1-ILK) for the expression of GST-PH domain fusion proteins. The mutated Akt1 Y38G PH domain was generated from pGEX-4T1-AKT1 by site-directed mutagenesis using the QuikChange II XL Site-Directed Mutagenesis Kit (Agilent Technologies). The expression and purification of GST-PH domain fusion proteins were performed essentially as described previously. Thomas et al., Curr Biol 12, 1256 (2002). The purified PH domains were analyzed by SDS-PAGE using an overloaded gel with purities were estimated to be >95% using ImageJ software.
(§2) Binding experiments were performed using a Biacore T100 system (GE Healthcare, Piscataway, N.J.). The GST-PH domain fusion proteins were immobilized on a CM5 S Sensorchip using Biacore's Amine Coupling Kit to a level of 17,000 response units. VE5 compounds and di-octanoyl PIP3 at concentrations ranging from 0.1 to 100 μM and 1 to 20 μm, respectively, were injected at a high flow rate (30 μL/min) over the biosensor surface for binding analyses. DMSO concentrations in all samples and running buffer were 1% (v/v) or less. Data were analyzed using Biacore T100 Evaluation Software.

[2] = target: T2, PH domain of Akt (GST-PH domain fusion protein) (Homo sapiens, UniProt P31749); test: Surface plasmon resonance binding, Akt PH domain; conditions: SPR, wild-type PH domain; means (n = 3) ± SD; read-out: Kd, Akt PH domain
T2 construct: made in house
T2 sequence (P31749 5-108 limits assumed): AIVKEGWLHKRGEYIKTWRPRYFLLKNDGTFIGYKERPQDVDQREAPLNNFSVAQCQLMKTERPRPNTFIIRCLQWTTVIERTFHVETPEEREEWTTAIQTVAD
Text: as §1, §2

[3] = system: mTORC2 (mTOR, rictor, SGK, PKCα); test: Western blot of mTORC2 components and downstream targets; assay type: cell-based
Experimental: Cells were exposed to the test agents in 10-cm dishes for 24 hours and then collected by scraping. The cell pellets were washed once with PBS, and then lysed at 4° C. over 30 min of incubation in a sodium dodecyl sulfate (SDS) lysis buffer containing 1% SDS, 50 mM Tris HCl (pH 8.1), 10 mM EDTA and […] protease inhibitor cocktail (Sigma-Aldrich). The cell debris was pelleted by centrifugation for 20 min at 14,000×g, and 1 μl of each supernatant was used for determination of protein concentration using a colorimetric bicinchoninic assay (Pierce, Rockford, Ill.). The remaining sample was added to equal volume of 2×SDS-polyacrylamide gel electrophoresis sample loading buffer (62.5 mM Tris-HCl, pH 6.8, 4% SDS, 5% β-mercaptoethanol, 20% glycerol, 0.1% bromophenol blue), followed by incubation in boiling water for 5 min. Equivalent amounts of total protein were resolved in SDS-polyacrylamide gels, and then transferred to nitrocellulose membranes using a semidry transfer cell. The transblotted membrane was washed twice with Tris-buffered saline containing 0.1% Tween 20 (TBST). After blocking with TBST containing 5% nonfat milk for 40 min, the membrane was incubated with the appropriate primary antibody (1:1000) in TBST-1% nonfat milk at 4° C. overnight. The membrane was then washed three times with TBST for a total of 15 min, followed by incubation with goat anti-rabbit or anti-mouse IgG-horseradish peroxidase conjugates (1:2000) for 1 hour at room temperature and four washes with TBST for a total of 1 hour. The immunoblots were visualized by enhanced chemiluminescence (GE Healthcare Life Sciences).

Akt1 Y38G PH domain = target: T3, Akt1 Y38G PH domain (Homo sapiens, UniProt P31749, Y38G); test: Surface plasmon resonance binding, Akt-Y38G PH domain mutant; conditions: SPR, P < 0.05 vs. Akt
T3 construct: made in house
T3 sequence (P31749 5-108 Y38G limits assumed): as the sequence (P31749 5-108 limits assumed) above, with Y34G counted along it
Text: as §1
Binding experiments were performed using a Biacore T100 system (GE Healthcare, Piscataway, N.J.). The GST-PH domain fusion proteins were immobilized on a CM5 S Sensorchip using Biacore's Amine Coupling Kit to a level of 17,000 response units. […] Data were analyzed using Biacore T100 Evaluation Software.

| Structure (SMILES) | IC50 (LNCaP-abl cells) [µM] | Kd [1] [µM] | Kd [2] [µM] | abundance or phosphorylation of mTORC2 components and targets (mTOR, rictor, SGK, PKCα) [3] | Kd (Akt1 Y38G PH domain) [µM] |
| --- | --- | --- | --- | --- | --- |
| Cc1c(C)c2c(c(C)c1O)CC[C@@](C)(CCCC(C)C)O2 [α-VE5, (R)-2,5,7,8-tetramethyl-2-(4-methylpentyl)-chroman-6-ol] | 10 | 26.6 ± 1 | 3.4 | lack of changes | 0.48 ± 0.13 |
| Cc1c(O)cc2c(c1C)O[C@](C)(CCCC(C)C)CC2 [γ-VE5, (R)-2,7,8-trimethyl-2-(4-methylpentyl)-chroman-6-ol] | 7 | 18.7 ± 4.5 | 0.9 ± 0.1 | lack of changes | 0.49 ± 0.02 |
